Assay results taken from patent US4241053A, “Novel nitrosourea compounds and process for preparing the same” (Tanabe Seiyaku Co., Ltd., priority 1978, dated 1980).

Key:
[1] = Preventive effect against the growth of Ehrlich ascites tumor (Method A); type: in vivo, mice (female ICR); details: mouse, in vivo, ip; maximum dose with 100% inhibition of Ehrlich ascites tumor without causing death; unit from dose column; read-out: MTD (Maximum Tolerated Dose)
Experimental: (§1) (A) Preventive effect against the growth of Ehrlich ascites tumor:
(§2) 10^6 tumor cells of Ehrlich ascites carcinoma were inoculated intraperitoneally into a group of five femal mice (ICR mice, body weight: 19-23 g). A test compound was dissolved in a physiological saline solution [In the case where CCNU was employed as the test compound, said compound was suspended in a physiological saline solution containing 0.1% NIKKOL HCO-60 (trademark; a surface active agent manufactured by Nikko Chemicals Co. Ltd.)] and administered intraperioneally to the mice. The administration of the test compound was begun 24 hours after the inoculation of the tumor cells and performed once a day for 5 days. The volume of ascites in the treated mice were measured after 7 days of the experiment.
(§3) ^a T = the average volume of ascites in the treated mice
(§4) C = the average volume of ascites in the untreated mice (control group of
(§5) 100% inhibition for the growth of Ehrlich ascites tumor in mice without
(§6) causing the death of said mice)
(§7) 100% inhibition for the growth of said ascites tumor)
(§8) ^e Therapeutic index = MTD/MED
(§9) *the number of mice died/the number of mice used

[2] = tested on: Ehrlich ascites carcinoma; assay: as above; type: in vivo, mice (female ICR); details: for Toxic (number of mice died/number of mice used) / inhibition in vivo at 0.09 mg/kg / inhibition in vivo at 0.19 mg/kg / inhibition in vivo at 0.39 mg/kg / inhibition in vivo at 0.78 mg/kg / inhibition in vivo at 3.12 mg/kg / inhibition in vivo at 12.5 mg/kg / inhibition in vivo at 50 mg/kg / inhibition in vivo at 1.56 mg/kg / inhibition in vivo at 6.25 mg/kg / inhibition in vivo at 25 mg/kg / inhibition in vivo at 100 mg/kg: once a day for 5 days; for therapeutic index (M.T.D./M.E.D.) relative to that of GANU: Ehrlich ascites tumor, greater than that of GANU; for inhibition in vivo at 0.09 mg/kg / inhibition in vivo at 0.19 mg/kg / inhibition in vivo at 0.39 mg/kg / inhibition in vivo at 0.78 mg/kg / inhibition in vivo at 3.12 mg/kg / inhibition in vivo at 12.5 mg/kg / inhibition in vivo at 50 mg/kg / minimal effective dose / inhibition in vivo at 1.56 mg/kg / inhibition in vivo at 6.25 mg/kg / inhibition in vivo at 25 mg/kg / inhibition in vivo at 100 mg/kg: Mus musculus, Ehrlich, ip, 168 h; for inhibition in vivo at 0.09 mg/kg: 0.09 mg/kg/day i.p.; for inhibition in vivo at 0.09 mg/kg / inhibition in vivo at 0.19 mg/kg / inhibition in vivo at 0.39 mg/kg / inhibition in vivo at 0.78 mg/kg / inhibition in vivo at 3.12 mg/kg / inhibition in vivo at 12.5 mg/kg / inhibition in vivo at 50 mg/kg / inhibition in vivo at 1.56 mg/kg / inhibition in vivo at 6.25 mg/kg / inhibition in vivo at 25 mg/kg / inhibition in vivo at 100 mg/kg: read-out: Inhibition ratio; for inhibition in vivo at 0.19 mg/kg: 0.19 mg/kg/day i.p.; for inhibition in vivo at 0.39 mg/kg: 0.39 mg/kg/day i.p.; for inhibition in vivo at 0.78 mg/kg: 0.78 mg/kg/day i.p.; for inhibition in vivo at 3.12 mg/kg: 3.12 mg/kg/day i.p.; for inhibition in vivo at 12.5 mg/kg: 12.5 mg/kg/day i.p.; for inhibition in vivo at 50 mg/kg: 50 mg/kg/day i.p.; for minimal effective dose: minimum dose with 100% inhibition of ascites tumor, unit from dose column, read-out: MED (Minimum Effective Dose); for inhibition in vivo at 1.56 mg/kg: 1.56 mg/kg/day i.p.; for inhibition in vivo at 6.25 mg/kg: 6.25 mg/kg/day i.p.; for inhibition in vivo at 25 mg/kg: 25 mg/kg/day i.p.
Experimental: as §1, §2, §3, §4, §5, §6, §7, §8, §9

Leukemia L-1210 = assay: Effect on the life span of mice implanted with leukemic cells of L-1210 (Method B); type: in vivo, mice (male BDF1); details: for ILS at 6.25 mg/kg / responders at 6.25 mg/kg: 6.25 mg/kg/day i.p.; for ILS at 12.5 mg/kg / responders at 12.5 mg/kg: 12.5 mg/kg/day i.p.; for ILS at 25 mg/kg / responders at 25 mg/kg: 25 mg/kg/day i.p.; for ILS at 50 mg/kg / responders at 50 mg/kg: 50 mg/kg/day i.p.; for responders at 6.25 mg/kg / responders at 12.5 mg/kg / responders at 25 mg/kg / responders at 50 mg/kg: read-out: 60-day survivors (mice survived for 60 days/mice used) (converted); for increase in the average life span: five consecutive days
Experimental: (B) Effect on the life span of mice implanted with leukemic cells of L-1210:
10^5 leukemic cells of L-1210 were inoculated intraperitoneally into a group of four or six male mice (BDF1 mice, body weight: 19-23 g). A test compound was dissolved in a physiological saline solution and administered intraperitoneally to the mice. The administration of the test compound was begun 24 hours after the inoculation of the leukemic cells and performed once a day for 5 days. The survival days of the treated mice were observed.
^a T = the mean survival days of the treated mice
C = the mean survival days of the untreated mice (control group of mice)
^b ILS(Increase in Life Span) =-
^c 60day survivors = the number of mice survived for 60 days/the

[3] = Mus musculus, L1210, ip, 120 h, once a day for 5 days, read-out: ILS (Increase in Life Span)
[4] = Mus musculus, L1210, ip, 1440 h, once a day for 5 days

| SMILES | MTD at 168 h [1] [mg/kg/day] | Toxic (number of mice died/number of mice used) ([2]; 100 mg/kg/day i.p.) | therapeutic index (M.T.D./M.E.D.) relative to that of GANU [2] [times] | Therapeutic index (MTD/MED) [2] | inhibition in vivo at 0.09 mg/kg [2] [%] | inhibition in vivo at 0.19 mg/kg [2] [%] | inhibition in vivo at 0.39 mg/kg [2] [%] | inhibition in vivo at 0.78 mg/kg [2] [%] | inhibition in vivo at 3.12 mg/kg [2] [%] | inhibition in vivo at 12.5 mg/kg [2] [%] | inhibition in vivo at 50 mg/kg [2] [%] | minimal effective dose [2] [mg/kg/day] | ILS at 6.25 mg/kg (Leukemia L-1210; [3]) [%] | ILS at 12.5 mg/kg (Leukemia L-1210; [3]) [%] | ILS at 25 mg/kg (Leukemia L-1210; [3]) [%] | ILS at 50 mg/kg (Leukemia L-1210; [3]) [%] | responders at 6.25 mg/kg (Leukemia L-1210; [4]) [%] | responders at 12.5 mg/kg (Leukemia L-1210; [4]) [%] | responders at 25 mg/kg (Leukemia L-1210; [4]) [%] | responders at 50 mg/kg (Leukemia L-1210; [4]) [%] | also measured |
| --- | --- | --- | --- | --- | --- | --- | --- | --- | --- | --- | --- | --- | --- | --- | --- | --- | --- | --- | --- | --- | --- |
| COCCCN(C(=O)N(CCCl)N=O)C1OC[C@H](O)[C@H](O)[C@H]1O (stereo partly drawn) [Compound 4, 1-(2-chloroethyl)-1-nitroso-3-(3-methoxy-n-propyl)-3-(L-arabinopyranosyl)urea] | 50 | 2/5 | 4 | 128 | 18.4 | 44.9 | 100 | 100 | 100 | 100 | 100 | 0.39 | 97.2 | > 324 | > 733 | > 733 | 0 | 33.3 | 100 | 100 | – |
| COC(C)CN(C(=O)N(CCCl)N=O)C1OC[C@H](O)[C@H](O)[C@H]1O (stereo partly drawn) [Compound 5, 1-(2-chloroethyl)-1-nitroso-3-(2-methoxy-n-propyl)-3-(L-arabinopyranosyl)urea] | 50 | 4/5 | – | 128 | 8.2 | 36.7 | 100 | 100 | 100 | 100 | 100 | 0.39 | 91.7 | > 529 | > 733 | > 678 | 0 | 75 | 100 | 75 | increase in the average life span (Leukemia L-1210; daily dose 0.5 mg/kg i.p.): about 30% |
| COCC(C)N(C(=O)N(CCCl)N=O)C1OC[C@H](O)[C@H](O)[C@H]1O (stereo partly drawn) [Compound 6, 1-(2-chloroethyl)-1-nitroso-3-(1-methyl-2-methoxy-ethyl)-3-(L-arabinopyranosyl)urea] | 50 | 5/5 | – | 64 | 15.8 | 63.2 | 92.1 | 100 | 100 | 100 | 100 | 0.78 | > 270 | > 722 | > 722 | – | – | 100 | 100 | – | ILS at 1.56 mg/kg (Leukemia L-1210; Mus musculus, L1210, ip, 120 h, 1.56 mg/kg/day i.p., once a day for 5 days, read-out: ILS (Increase in Life Span)): 57.5%; responders at 1.56 mg/kg (Leukemia L-1210; Mus musculus, L1210, ip, 1440 h, 1.56 mg/kg/day i.p., once a day for 5 days, read-out: 60-day survivors (mice survived for 60 days/mice used)): 0%; increase in the average life span (Leukemia L-1210; daily dose 0.45 mg/kg i.p.): about 30% |
| COCCCN(C(=O)N(CCCl)N=O)C1OC[C@@H](O)[C@@H](O)[C@@H]1O (stereo partly drawn) [Compound 7, 1-(2-chloroethyl)-1-nitroso-3-(3-methoxy-n-propyl)-3-(D-arabinopyranosyl)urea] | 100 | – | 4 | 128 | – | 23.2 | 73.2 | 100 | – | – | – | 0.78 | – | > 215 | > 641 | > 641 | – | 25 | 100 | 100 | Toxic (number of mice died/number of mice used) ([2]; 200 mg/kg/day i.p.): 5/5; inhibition in vivo at 1.56 mg/kg [2]: 100%; inhibition in vivo at 6.25 mg/kg [2]: 100%; inhibition in vivo at 25 mg/kg [2]: 100%; inhibition in vivo at 100 mg/kg ([2]; 100 mg/kg/day i.p.): 100%; ILS at 3.12 mg/kg (Leukemia L-1210; Mus musculus, L1210, ip, 120 h, 3.12 mg/kg/day i.p., once a day for 5 days, read-out: ILS (Increase in Life Span)): 66.7%; responders at 3.12 mg/kg (Leukemia L-1210; Mus musculus, L1210, ip, 1440 h, 3.12 mg/kg/day i.p., once a day for 5 days, read-out: 60-day survivors (mice survived for 60 days/mice used)): 0% |
| COCC(C)N(C(=O)N(CCCl)N=O)C1O[C@H](CO)[C@H](O)[C@H](O)[C@H]1O (stereo partly drawn) [Compound 8, 1-(2-chloroethyl)-1-nitroso-3-(1-methyl-2-methoxy-ethyl)-3-(D-galactopyranosyl)urea] | 100 | – | – | 64 | – | – | 18.4 | 65.8 | – | – | – | 1.56 | – | 158 | > 496 | > 722 | – | 0 | 50 | 100 | Toxic (number of mice died/number of mice used) ([2]; 200 mg/kg/day i.p.): 5/5; inhibition in vivo at 1.56 mg/kg [2]: 100%; inhibition in vivo at 6.25 mg/kg [2]: 100%; inhibition in vivo at 25 mg/kg [2]: 100%; inhibition in vivo at 100 mg/kg ([2]; 100 mg/kg/day i.p.): 100% |
